In brackets after ≈: the same amount, converted by molar mass. Entries after “also recorded” stand apart in the source; their conditions may differ. Where two headings read alike, the source gives them in different places.
Columns and labels:
[1] = tested on: M. tuberculosis; design: method as in PMID 23287128; conditions: ref [31]; cited from earlier work
[2] = tested on: M. tuberculosis H37Rv; assay: MIC by agar dilution method; type: cell-based; conditions: Mycobacterium tuberculosis, acidic agar pH 5.5 to 6, 30 days
[3] = type: in vitro ADME, mouse
Method: Test compounds were weighed and dissolved in dimethyl sulfoxide (DMSO) to give 10 mM stock solutions. The stock solutions were diluted to 500 μM with a mixture of methanol and H2O (1:1), and the final concentrations of DMSO and methanol were equal to, or less than, 0.1%. Liver microsome incubations were conducted in duplicate in 96—well plates. Each well contained 40 μL of 0.1 M potassium phosphate buffer (pH 7.4), 2.5 mM MgCl2, 0.625 mg/mL mouse liver microsomes, and test compound (1.25 μM) or positive control. After a 5 min pre-incubation at 37°C, 10 μL of 5.0 mM NADPH in 0.1 M potassium phosphate buffer was added to initiate the enzymatic reaction. The final concentrations were 0.1M potassium phosphate (pH 7.4), 1.0 mM NADPH, 2.0 mM MgCl2, 0.5 mg/mL mouse liver microsomes, and test compound (1.0 μM) or positive control (1.0 μM). Reactions were terminated at various time points (0, 5, 10, 20, 40 min) by adding 100 μL of ice-cold acetonitrile containing internal standard. A parallel incubation was performed using 0.1 M potassium phosphate (pH 7.4) instead of NADPH as the negative control, and the reaction was terminated 40 min after incubation at 37°C. Compound quantitation was performed on a Shimadzu liquid chromatographic system coupled with an API4000 mass spectrometer equipped with TurboIonSpray (ESI) Interface (Applied Biosystems).

[4] = tested on: M. tuberculosis (H37Rv); assay: In vitro accumulation assay, M. tuberculosis; type: cell-based; conditions: 120 min of incubation
[5] = tested on: Staphylococcus aureus (ATCC 29213); assay: In vitro accumulation assay, S. aureus; type: cell-based; conditions: 120 min of incubation
[6] = tested on: Escherichia coli (ATCC 25922); assay: In vitro accumulation assay, E. coli; type: cell-based; conditions: 120 min of incubation
[7] = tested on: Pseudomonas aeruginosa (ATCC 10145); assay: In vitro accumulation assay, P. aeruginosa; type: cell-based; conditions: 120 min of incubation
[8] = tested on: J774A.1 murine macrophage cells; assay: Uptake assay in macrophage cells; type: cell-based; conditions: 120 min of incubation
[9] = mouse, 740 kBq/mL
[10] = tested on: heat-killed control cultures; assay: Accumulation assay in heat-killed bacteria (negative control); conditions: heat-killed 90°C for 30 min
[11] = PET/CT imaging and ex vivo biodistribution in M. tuberculosis-infected and uninfected mice
[12] = M. tuberculosis H37Rv, read-out: MIC

## NC(=O)c1cnc(Cl)cn1 [5-Cl-PZA, 5-Chloropyrazinamide]
[1]
  activity in M. tuberculosis-infected mice: lack of activity

## NC(=O)c1cnc(F)cn1 [5-F-PZA, 5-Fluoropyrazinamide]
[2]; H37RV, read-out: concentration up to which bacterial growth was not inhibited (MIC)
  MIC: > 2000 µg/mL
[2]; [12]
  MIC: > 2000 µg/mL
[3]; CD-1, mouse, microsomes, 40 min, 1 μM, pH 7.4
  fraction of initial concentration metabolized: approximately 20%
[3]; mouse
  stability in the presence of liver microsomes: not stable

## NC(=O)c1cnc([18F])cn1 [5-[^18F]F-PZA, 5-[^18F]F-pyrazinamide]
[4]
  In vitro accumulation in M. tuberculosis: 0.094%
[5]
  In vitro accumulation in S. aureus: 0.123±0.014
[6]
  In vitro accumulation in E. coli: 0.055±0.005
[7]
  In vitro accumulation in P. aeruginosa: 0.043±0.026
[8]
  Accumulation in J774A.1 murine macrophage cells: 0.057±0.019
[9]
  incubation time after which defluorination could be detected: 2 min
[9]; 30 min
  percent of total activity defluorinated: ~ 25%
[9]; 60 min
  percent defluorination: ~ 40%
[10]
  Uptake in heat-killed control cultures: no uptake
[11]; PET 10 min and 30 min post-injection, post-mortem analysis
  bone activity: significant activity in the bones
[11]; PET imaging
  distribution to organs after intravenous administration: rapidly distributed to various organs
  elimination from organs: rapidly eliminated from all major organs
[11]; direct γ counting after PET imaging
  ex vivo activity in lung (and spleen), infected vs uninfected: higher activity in uninfected lung tissue compared to infected lungs; also recorded: higher activity in uninfected lung and spleen tissues
[11]; intravenous, throughout 60 min post-injection
  PET concentration (%ID/cc) in blood, liver, bone and lungs, infected vs uninfected mice: not significantly different; also recorded: No significant difference

## NC(=O)c1cnccn1 [PZA, pyrazinamide]
[2]; [12]
  MIC: 20 µg/mL (≈ 0.162 mM)

Source: publication PMC5289470, “The biodistribution of 5-[^18F]fluoropyrazinamide in Mycobacterium tuberculosis-infected mice determined by positron emission tomography” (PLoS ONE, 2017)
